Measured values as given in patent US20090092661A1, “LIPOSOME COMPOSITIONS FOR IN VIVO ADMINISTRATION OF BORONIC ACID COMPOUNDS” (priority 2007, published 2009).
Like-named read-outs stand apart in the source and are kept apart here.

Experiments:
[1] = Pharmacokinetics in plasma, blood and tumor of SCID mice bearing CWR22 tumors (Example 7); type: in vivo; conditions: for AUC(0-t): read-out: AUC(0-24 h)
Procedure: Liposome formulations prepared as described herein were administered in vivo to mice. As described in Example 7, liposomes comprised of 22:0PC/mPEG-DSPE (95/5) and containing entrapped bortezomib were prepared and administered intravenously to tumor-bearing mice. A control group of mice was treated with bortezomib sold under the trade name VELCADE®, which is a mixture of bortezomib in mannitol. FIGS. 11A-11C show the concentration, in ng/mL, of bortezomib in plasma (FIG. 11A), blood (FIG. 11B) and tumor (FIG. 11C) for the drug in free form (diamonds) or entrapped in liposomes (squares).
Blood and tumor samples were taken at various time points. The bortezomib concentrations in blood, plasma and tumor tissues were determined by LC-MS.

[2] = Plasma pharmacokinetics in mice (another study, Table 2); type: in vivo; conditions: mouse
Procedure: In another study, liposome-entrapped bortezomib was administered to mice and the pharmacokinetic parameters were determined. The liposomes were composed of 22:0PC/mPEG-DSPE and were prepared as described in Example 7.

[3] = cited from earlier work
[4] = male, SCID, mouse, iv, Plasma, mice, i.v. 0.8 mg/kg
[5] = male, SCID, mouse, iv, Tumor, mice, i.v. 0.8 mg/kg
[6] = male, SCID, mouse, iv, Whole Blood, mice, i.v. 0.8 mg/kg

Q: What does the source list for CC(C)C[C@H](NC(=O)[C@H](Cc1ccccc1)NC(=O)c1cnccn1)B(O)O [bortezomib]?
A: CL(app) = dose/AUC24 h ([1]; Whole Blood): 0.358 mL/min/kg; clearance ([1]; male, SCID, mouse, intravenous, 0.8 mg/kg, Plasma, estimated using T½α phase, read-out: CL-obs (converted)): 0.222 mL/min/kg; Vd ([1]; male, SCID, mouse, intravenous, 0.8 mg/kg, Plasma, estimated using T½α phase, read-out: Vss-obs): 0.0427 L/kg; Cmax [1, 4]: 23500 ng/mL; AUC(0-t) [1, 4]: 59800 ng·h/mL; half-life ([1]; male, SCID, mouse, iv, Plasma, mice, i.v. 0.8 mg/kg, read-out: T1/2(α) (converted)): 2.7 h; Cmax [1, 5]: 674 ng/mL; AUC(0-t) [1, 5]: 12800 ng·h/mL; Cmax [1, 6]: 10300 ng/mL; AUC(0-t) [1, 6]: 37200 ng·h/mL; concentration at 5 min ([2]; intravenous, read-out: Conc. At 5 min.): 423 ± 33.6 ng/mL; AUC(0-t) ([2]; iv, read-out: AUC(0-24 h)): 271 ng·h/mL; clearance ([2]; iv, read-out: CL-obs (converted)): 0.897 mL/min; Vd ([2]; iv, read-out: Vss): 0.37 L; maximum tolerated dose ([3]; intravenous bolus on days 1, 4, 8, and 11 of a 3-week cycle): 1.56 mg/m^2; maximum tolerated dose ([3]; patients with solid tumors, intravenously once or twice weekly): 1.3 mg/m^2
